In article PMC4867616, “Imaging of Cerebral Amyloid Angiopathy with Bivalent ^99mTc-Hydroxamamide Complexes” (Scientific Reports, 2016):

Target: T1, Aβ depositions in human CAA brain sections (Homo sapiens, UniProt P05067)
T1 construct: consistent with the immunohistochemical staining pattern observed in the same brain sections with anti-Aβ(1–40) antibody; from tissue; host or cells: post-mortem human brain, autopsy-confirmed CAA cases
Experiment: In vitro autoradiography of human CAA brain sections
Format: binding
Conditions: for Labeling of Aβ depositions in brain sections from another patient with CAA: patient with CAA (person)
Protocol: (§1) Six micrometer thick serial human brain sections of paraffin-embedded blocks were used for autoradiography. To completely deparaffinize the sections, they were incubated in xylene for 30 min two times and in 100% EtOH for 1 min two times. Subsequently, they were subjected to 1-min incubation in 90% EtOH and 1-min incubation in 70% EtOH, followed by a 5-min wash in water. Each slide was incubated with a 50% EtOH solution of [^99mTc]SB2A or [^99mTc]BT2B (370 kBq/mL) at room temperature for 1 h. […] The sections were washed in 50% EtOH for 3 min two times and exposed to a BAS imaging plate (Fuji Film, Tokyo, Japan) for 2 h. Autoradiographic images were obtained using a BAS5000 scanner system (Fuji Film). After autoradiographic examination, the same sections were immunostained by an antibody against Aβ(1–40) to confirm the presence of Aβ depositions. For immunohistochemical staining of Aβ(1–40), the sections were autoclaved for 15 min in 0.01 M citric acid buffer (pH 6.0) to activate the antigen. After three 5-min incubations in PBS-Tween 20 (PBST), they were incubated with anti-Aβ(1–40) primary antibody (BA27; Wako, Osaka, Japan) at room temperature overnight. Subsequently, they were incubated in PBST for 5 min three times, and incubated with biotinylated goat anti-mouse IgG (Wako) at room temperature for 3 h. After three 5-min incubations in PBST, the sections were incubated with Streptavidin-Peroxidase complex at room temperature for 30 min. After three 5-min incubations in PBST, they were incubated with diaminobenzidine (Merck, Hesse, Germany) as a chromogen for 5 min. After washing with water, the sections were observed under a microscope (BIOREVO BZ-9000; Keyence Corp., Osaka, Japan).
as §1, with “In vitro autoradiography of human CAA brain sections. Postmortem brain tissues from autopsy-confirmed cases of CAA (person, and person) and a control (person) were obtained from the Graduate School of Medicine, Kyoto University, National Cerebral and Cardiovascular Center, and BioChain Institute Inc. (California, USA), respectively. Experiments were performed according to the regulations of the ethics committee of Kyoto University. Six” for “Six”, “serial” for “serial human brain”, “Aβ(1-40)” for “Aβ(1–40)”, “Aβ(1-40),” for “Aβ(1–40),”, “anti-Aβ(1-40)” for “anti-Aβ(1–40)”, “After three 5-min incubations in PBST, the sections were incubated with Streptavidin-Peroxidase complex at room temperature for 30 min. After three 5-min incubations in PBST, they were incubated with diaminobenzidine (Merck, Hesse, Germany) as a chromogen for 5 min. After washing with water, the sections were observed under a microscope (BIOREVO BZ-9000; Keyence Corp., Osaka, Japan).” left out

T1 sequence (P05067 672-711 limits assumed): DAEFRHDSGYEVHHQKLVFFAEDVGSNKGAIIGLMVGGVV

Blocking of labeling of Aβ depositions with excess nonradioactive PIB (adjacent CAA brain section, PIB 1.0 mM) | Accumulation of radioactivity in control brain sections (autoradiography) (brain section from a healthy control (person)) | Labeling of Aβ depositions in CAA brain sections (autoradiography) (brain section from a patient with CAA (person), 370 kBq/mL, 1 h) | Labeling of Aβ depositions in brain sections from another patient with CAA | SMILES
blocked to a large extent | almost no accumulation of radioactivity | intensively labeled Aβ depositions | intensively labeled Aβ depositions | CN(C)c1ccc(/C=C/c2ccc(C3=N[O][99Tc-]4(=[O])([NH]3)[NH2+]C(c3ccc(/C=C/c5ccc(N(C)C)cc5)cc3)=N[O]4)cc2)cc1 (single isomer, unassigned) [[^99mTc]SB2A]
– | – | – | intensively labeled Aβ depositions | CN(C)c1ccc(-c2nc3ccc(C4=N[O][99Tc-]5(=[O])([NH]4)[NH2+]C(c4ccc6nc(-c7ccc(N(C)C)cc7)sc6c4)=N[O]5)cc3s2)cc1 [[^99mTc]BT2B]
